Laboratory results: US12325744B2, “Methods for reducing post-operative cognitive dysfunction (POCD)” (The Kennedy Trust for Rheumatology Research, priority 2010, dated 2025)
“Also recorded” adds a separate entry of the source.

How the values were obtained:
[1] = test system: microglia; assay: Hippocampal microglia anti-CD11b immunohistochemistry grading after LPS injection; type: in vivo, mice; settings: LPS 1 mg/kg i.p.; IL-1Ra pre-treatment; days 1 and 3
Description: (§1) Treatment. LPS derived from Escherichia Coli endotoxin ([…], InvivoGen, USA, 1 mg/kg) was dissolved in normal saline and injected intraperitoneally. IL-1Ra (Amgen, Anakinra 100 mg/kg, Nederlands) was given subcutaneously immediately before LPS administration. Dose response curve from LPS or IL-1Ra was obtained from our pilot studies to provoke or to suppress moderate degree of microglia activation respectively. Control animals were injected with equivalent volumes (0.1 ml) of saline. Mice from each treatment group were randomly assigned for assessment of either cytokine response or cognitive behavior, in order to obviate possible confounding effects of behavioral testing on inflammatory markers.
Immunohistochemistry (IHC). Mice were euthanized and perfused transcardially with ice-cold heparinized 0.1M phosphate buffer solution (PBS) followed by 4% paraformaldehyde in 0.1M PBS at pH 7.4 (VWR International, UK). The brains were harvested and post-fixed in 4% paraformaldehyde in 0.1M PBS at 4° C. and cryoprotected in 0.1M PBS solutions containing 15% sucrose for 24 hours (VWR International, UK) and then 30% sucrose for a further 48 hours. Brain tissue was freeze-mounted in OCT embedding medium (VWR International, UK). The 25 μm thick coronal sections of the hippocampus were cut sequentially in groups of 6 and mounted on Superfrost® plus slides (Menzel-Glaser, Germany). […]

[2] = test system: C57BL/6 male mice; assay: Trace fear conditioning, contextual fear response after LPS injection; type: in vivo; settings: LPS within 30 min after training, tested day 3, IL-1Ra pre-treatment
Description: as §1
Behavioral measurement (conditioning). The behavioral study was conducted using a dedicated conditioning chamber (Med Associates Inc., USA). Mice were trained and tested on separate days. LPS was injected within 30 minutes following training. […] Three days after training, mice were returned to the same chamber in which training occurred (context), and freezing behavior was recorded. […] Approximately 3 h later, freezing was recorded in a novel environment and in response to the cue (tone). The auditory cue was then presented for 3 min, and freezing scored again. Freezing scores for each subject were expressed as a percentage for each portion of the test. […]

[3] = test system: IL-1β; assay: Plasma IL-1β by ELISA after LPS injection; type: in vivo, mice; settings: LPS 1 mg/kg i.p., IL-1Ra 100 mg/kg s.c. immediately before LPS
Description: as §1
(§2) Plasma cytokine measurement. Blood was sampled transcardially after thoracotomy under terminal anesthesia 30 minutes, 2, 6, 12 hours and 1, 3, 7 days after experiments in the different cohorts and centrifuged at 3,600 rpm for 7 minutes at 4° C. Blood samples taken from animals without any interventions severed as controls. Plasma samples were stored at −20° C. for further analysis. Plasma cytokine and HMGB-1 were measured using commercially available ELISA kits from Biosource, CA and Shino-test Corporation, Japan, respectively. The sensitivities of the assays were <3 pg/ml for TNFα, <7 pg/ml for IL-1β, <3 pg/ml for IL-6 and 1 ng/ml for HMGB-1.

[4] = test system: HMGB-1; assay: Plasma HMGB-1 by ELISA after LPS injection; type: in vivo, mice; settings: LPS 1 mg/kg i.p.; IL-1Ra 100 mg/kg s.c. immediately before LPS
Description: as §1, §2

[5] = test system: IL-6; assay: Plasma IL-6 by ELISA after LPS injection; type: in vivo, mice; settings: LPS 1 mg/kg i.p., IL-1Ra 100 mg/kg s.c. immediately before LPS
Description: as §1, §2

[6] = test system: IL-1β; assay: Hippocampal IL-1β by ELISA after tibial surgery; type: in vivo; settings: wild type mice, 6 h (minocycline, enrofloxacin) or 24 h (IL-1Ra) after surgery
Description: IL-6, TNF-α and IL-1β were measured by ELISA^19 (Biosource, CA; Bender Medsystem, CA, respectively). Hippocampal IL-1β was measured by ELISA (Bender Medsystem, CA), as previously described^20. To confirm reliability of dilution linearity and spike recovery cytokine measurement were also performed in mice in which inflammation was induced with i.p. LPS (0111:B4, Invivogen, CA). (For further details please refer to supplemental methods).
Under terminal anesthesia with pentobarbital, each mouse was euthanized and the brain quickly removed following decapitation. The hippocampus was dissected under microscopy on a frosted glass plate placed on top of crushed ice, then snap frozen and stored at −80° C. until processing. Each hippocampus was added to Iscove's culture medium containing 5% fetal calf serum (FCS) and a cocktail of enzyme inhibitors (in mM: 100 amino-n-caproic acid, 10 EDTA, 5 benzamidine-HCl, and 0.2 phenylmethylsulfonyl fluoride). […] IL-1β was measured in the supernatant from hippocampal extracts, which were appropriately diluted prior to measurement to fall on the linear portion of the sigmoid curve, using a commercially available ELISA kit (Bender Medsystem, CA). […]
Cytokine analyses: Systemic and hippocampal IL-1β was measured by ELISA (Bender Medsystem, CA; 1.2 pg/ml of sensitivity), as previously described (12).

[7] = test system: C57BL/6 male mice; assay: Observation of sickness behavior after LPS injection; type: in vivo; settings: LPS 1 mg/kg i.p.; IL-1Ra pre-treatment
Description: Animals. All the experiments were conducted under the UK Home Office approved license. Wild type C57BL/6 male mice, 12-14 weeks old, weighting 25-30 g were used and housed in groups of five in a 12-h-12-h light dark cycle, with controlled temperature and humidity with free access to food and water. IL-1R^−/− (kindly provided by Nancy Rothwell, University of Manchester) were bred in-house on a C57BL/6 background and age-matched to wild type counterparts. Seven days of acclimatization were allowed before starting any experiment. All the animals were checked on a daily basis and evidence of poor grooming, huddling, piloerection, weight loss, back arching and abnormal activity, were excluded in the experiments.
as §1, with “Mice from each treatment group were randomly assigned for assessment of either cytokine response or cognitive behavior, in order to obviate possible confounding effects of behavioral testing on inflammatory markers.” left out

IL-1Ra: IL-1 receptor antagonist (Amgen, Anakinra)
Reactive microglia in hippocampus after LPS, effect of IL-1Ra [1]: Reduction in the number of reactive microglia was observed; also recorded: attenuated by IL-1Ra treatment; also recorded: effectively reduced the number of reactive microglia at days 1 and 3 | Contextual fear response (freezing) after LPS, effect of IL-1Ra [2]: significantly ameliorated the memory retention at day 3; also recorded: significantly ameliorated this cognitive dysfunction | Plasma IL-1β at 6 hours after LPS with IL-1Ra ([3]; 6 hours): 32.7 ± 5.45 pg/mL | Plasma IL-1β at 24 hours after LPS with IL-1Ra ([3]; 24 hours): 6.2 ± 1.03 pg/mL | Plasma HMGB-1 after LPS, effect of IL-1Ra [4]: had no effects on HMGB-1 release in plasma; also recorded: had no effects on HMGB-1 levels | Plasma IL-6 at 6 hours after LPS with IL-1Ra ([5]; 6 hours): 91.02 ± 15.17 pg/mL | Plasma IL-6 at 24 hours after LPS with IL-1Ra ([5]; 24 hours): 14.05 ± 2.34 pg/mL | Hippocampal IL-1β expression after surgery, effect of treatment [6]: did not increase hippocampal microgliosis (FIG. 6, A-B-C) or expression of IL-1β; also recorded: Hippocampal IL-1β did not significantly increase | Symptoms of sickness behavior after LPS, effect of IL-1Ra [7]: abolished the main symptoms of sickness behavior
